Measured values reported in the NIST ThermoML archive (doi:10.1021/je900757k).

Experiment: isobaric coefficient of expansion
Conditions: Liquid, DSC

ClC(Cl)(Cl)Cl [tetrachloromethane]
isobaric coefficient of expansion
Conditions	278.15 K	288.15 K	298.15 K	308.15 K	318.15 K	328.15 K	338.15 K	348.15 K
5000 kPa	0.00114 1/K	0.00116 1/K	0.00119 1/K	0.00121 1/K	0.00124 1/K	0.00126 1/K	0.0013 1/K	0.00132 1/K
10000 kPa	0.00112 1/K	0.00113 1/K	0.00116 1/K	0.00117 1/K	0.0012 1/K	0.00122 1/K	0.00125 1/K	0.00126 1/K
15000 kPa	0.00108 1/K	0.0011 1/K	0.00113 1/K	0.00114 1/K	0.00116 1/K	0.00118 1/K	0.00119 1/K	0.00121 1/K
20000 kPa	0.00106 1/K	0.00108 1/K	0.00109 1/K	0.00111 1/K	0.00113 1/K	0.00114 1/K	0.00115 1/K	0.00116 1/K
25000 kPa	0.00104 1/K	0.00105 1/K	0.00107 1/K	0.00108 1/K	0.00109 1/K	0.0011 1/K	0.00111 1/K	0.00112 1/K
30000 kPa	0.00102 1/K	0.00103 1/K	0.00104 1/K	0.00105 1/K	0.00106 1/K	0.00107 1/K	0.00108 1/K	0.00109 1/K
35000 kPa	0.001 1/K	0.00101 1/K	0.00102 1/K	0.00103 1/K	0.00104 1/K	0.00104 1/K	0.00105 1/K	0.00105 1/K
40000 kPa	0.000979 1/K	0.000985 1/K	0.000996 1/K	0.00101 1/K	0.00101 1/K	0.00101 1/K	0.00102 1/K	0.00102 1/K
45000 kPa	0.000959 1/K	0.000967 1/K	0.000978 1/K	0.000978 1/K	0.000986 1/K	0.000986 1/K	0.000988 1/K	0.000993 1/K
50000 kPa	0.000943 1/K	0.000949 1/K	0.000955 1/K	0.000959 1/K	0.00097 1/K	0.000965 1/K	0.000967 1/K	0.000969 1/K
55000 kPa	0.000936 1/K	0.00093 1/K	0.000935 1/K	0.00094 1/K	0.00095 1/K	0.000946 1/K	0.000945 1/K	0.000947 1/K

CCCCCCCCCCCCCC [tetradecane]
isobaric coefficient of expansion
Conditions	298.15 K	308.15 K	318.15 K	328.15 K	338.15 K	348.15 K
5000 kPa	0.000909 1/K	0.000913 1/K	0.000918 1/K	0.000922 1/K	0.000931 1/K	0.000941 1/K
10000 kPa	0.000881 1/K	0.000884 1/K	0.00089 1/K	0.00089 1/K	0.000897 1/K	0.0009 1/K
15000 kPa	0.00086 1/K	0.000861 1/K	0.000863 1/K	0.000859 1/K	0.000863 1/K	0.000867 1/K
20000 kPa	0.000837 1/K	0.000836 1/K	0.000837 1/K	0.000833 1/K	0.000835 1/K	0.000839 1/K
25000 kPa	0.000815 1/K	0.000814 1/K	0.000815 1/K	0.00081 1/K	0.00081 1/K	0.000812 1/K
30000 kPa	0.000798 1/K	0.000793 1/K	0.000791 1/K	0.000789 1/K	0.000789 1/K	0.000789 1/K
35000 kPa	0.00078 1/K	0.000777 1/K	0.000774 1/K	0.00077 1/K	0.000768 1/K	0.000768 1/K
40000 kPa	0.000764 1/K	0.000761 1/K	0.000756 1/K	0.000753 1/K	0.000749 1/K	0.000747 1/K
45000 kPa	0.00075 1/K	0.000742 1/K	0.000738 1/K	0.000735 1/K	0.000732 1/K	0.000726 1/K
50000 kPa	0.000737 1/K	0.00073 1/K	0.000722 1/K	0.00072 1/K	0.000718 1/K	0.000711 1/K
55000 kPa	0.000725 1/K	0.000719 1/K	0.000714 1/K	0.000709 1/K	0.000705 1/K	0.000699 1/K
